# Results taken from ChEMBL document CHEMBL3734723, “Synthesis and anticancer activity of 6-heteroarylcoumarins” (2015).
# What was measured:
# Format in all cases: functional
# [1] = test system: A549; test: Growth inhibition of human A549 cells incubated for 48 hrs by sulforhodamine B assay; details: A549, 48 h; for CC50: read-out: LC50 (the source's name)
# [2] = test system: Malme-3M; test: Cytotoxicity against human MALME-3M cells assessed as cell growth at 10 uM incubated for 48 hrs by sulforhodamine B assay; details: read-out: Activity
# [3] = test system: M14; test: Growth inhibition of human M14 cells incubated for 48 hrs by sulforhodamine B assay; details: M14, 48 h; for CC50: read-out: LC50 (the source's name)
# [4] = Growth inhibition of human SF268 cells incubated for 48 hrs by sulforhodamine B assay; details: SF-268, 48 h; for CC50: read-out: LC50 (the source's name)
# [5] = Growth inhibition of human UACC62 cells incubated for 48 hrs by sulforhodamine B assay; details: UACC-62, 48 h; for CC50: read-out: LC50 (the source's name)
# [6] = test system: SK-MEL-28; test: Growth inhibition of human SK-MEL-28 cells incubated for 48 hrs by sulforhodamine B assay; details: SK-MEL-28, 48 h; for CC50: read-out: LC50 (the source's name)
# [7] = Cytotoxicity against human LOXIMVI cells assessed as cell growth at 10 uM incubated for 48 hrs by sulforhodamine B assay; details: LOX IMVI, read-out: Activity
# [8] = Cytotoxicity against human HL-60(TB) cells assessed as cell growth at 10 uM incubated for 48 hrs by sulforhodamine B assay; details: HL-60, 48 h, read-out: Activity
# [9] = Growth inhibition of human leukemia cells after 48 hrs by sulforhodamine B assay; details: Leukemia cell; for CC50: read-out: LC50 (the source's name)
# [10] = Growth inhibition of human RPMI8226 cells incubated for 48 hrs by sulforhodamine B assay; details: RPMI-8226, 48 h; for CC50: read-out: LC50 (the source's name)
# [11] = Growth inhibition of human OVCAR3 cells incubated for 48 hrs by sulforhodamine B assay; details: OVCAR-3, 48 h; for CC50: read-out: LC50 (the source's name)
# [12] = Cytotoxicity against human SF295 cells assessed as cell growth at 10 uM incubated for 48 hrs by sulforhodamine B assay; details: SF-295, 48 h, read-out: Activity
# [13] = Cytotoxicity against human PC3 cells assessed as cell growth at 10 uM incubated for 48 hrs by sulforhodamine B assay; details: PC-3, 48 h, read-out: Activity
# [14] = Cytotoxicity against human SF268 cells assessed as cell growth at 10 uM incubated for 48 hrs by sulforhodamine B assay; details: SF-268, 48 h, read-out: Activity
# [15] = test system: SR; test: Cytotoxicity against human SR cells assessed as cell growth at 10 uM incubated for 48 hrs by sulforhodamine B assay; details: read-out: Activity
# [16] = test system: K562; test: Cytotoxicity against human K562 cells assessed as cell growth at 10 uM incubated for 48 hrs by sulforhodamine B assay; details: K562, 48 h, read-out: Activity
# [17] = test system: MDA-MB-231; test: Growth inhibition of human MDA-MB-231 cells incubated for 48 hrs by sulforhodamine B assay; details: MDA-MB-231, 48 h; for CC50: read-out: LC50 (the source's name)
# [18] = Growth inhibition of human HOP62 cells incubated for 48 hrs by sulforhodamine B assay; details: HOP-62, 48 h; for CC50: read-out: LC50 (the source's name)
# [19] = Cytotoxicity against human HOP92 cells assessed as cell growth at 10 uM incubated for 48 hrs by sulforhodamine B assay; details: HOP-92, 48 h, read-out: Activity
# [20] = test system: NCI-H460; test: Growth inhibition of human NCI-H460 cells incubated for 48 hrs by sulforhodamine B assay; details: NCI-H460, 48 h; for CC50: read-out: LC50 (the source's name)
# [21] = test system: MDA-MB-435; test: Cytotoxicity against human MDA-MB-435 cells assessed as cell growth at 10 uM incubated for 48 hrs by sulforhodamine B assay; details: MDA-MB-435, 48 h, read-out: Activity
# [22] = test system: 786-0; test: Growth inhibition of human 786-0 cells incubated for 48 hrs by sulforhodamine B assay; details: 786-0, 48 h; for CC50: read-out: LC50 (the source's name)
# [23] = test system: SK-MEL-2; test: Growth inhibition of human SK-MEL-2 cells incubated for 48 hrs by sulforhodamine B assay; details: SK-MEL-2, 48 h; for CC50: read-out: LC50 (the source's name)
# [24] = Growth inhibition of human SW620 cells incubated for 48 hrs by sulforhodamine B assay; details: SW-620, 48 h; for CC50: read-out: LC50 (the source's name)
# [25] = Cytotoxicity against human SW620 cells assessed as cell growth at 10 uM incubated for 48 hrs by sulforhodamine B assay; details: SW-620, 48 h, read-out: Activity
# [26] = Growth inhibition of human renal cancer cells after 48 hrs by sulforhodamine B assay; details: Cancer cell lines; for CC50: read-out: LC50 (the source's name)
# [27] = Growth inhibition of human DU145 cells incubated for 48 hrs by sulforhodamine B assay; details: DU-145, 48 h; for CC50: read-out: LC50 (the source's name)
# [28] = Growth inhibition of human ovarian cancer cells after 48 hrs by sulforhodamine B assay; details: Cancer cell lines; for CC50: read-out: LC50 (the source's name)
# [29] = test system: NCI-H322M; test: Growth inhibition of human NCI-H322M cells incubated for 48 hrs by sulforhodamine B assay; details: for CC50: read-out: LC50 (the source's name)
# [30] = Growth inhibition of human non-small cell lung cancer cells after 48 hrs by sulforhodamine B assay; details: Cancer cell lines; for CC50: read-out: LC50 (the source's name)
# [31] = Growth inhibition of human LOXIMVI cells incubated for 48 hrs by sulforhodamine B assay; details: LOX IMVI; for CC50: read-out: LC50 (the source's name)
# [32] = Growth inhibition of human RXF393 cells incubated for 48 hrs by sulforhodamine B assay; details: RXF 393, 48 h; for CC50: read-out: LC50 (the source's name)
# [33] = test system: MCF7; test: Cytotoxicity against human MCF7 cells assessed as cell growth at 10 uM incubated for 48 hrs by sulforhodamine B assay; details: MCF7, 48 h, read-out: Activity
# [34] = test system: MDA-MB-468; test: Cytotoxicity against human MDA-MB-468 cells assessed as cell growth at 10 uM incubated for 48 hrs by sulforhodamine B assay; details: MDA-MB-468, 48 h, read-out: Activity
# [35] = Cytotoxicity against human SNB75 cells assessed as cell growth at 10 uM incubated for 48 hrs by sulforhodamine B assay; details: SNB-75, 48 h, read-out: Activity
compound,measurement,setting,value
Cc1cc(=O)oc2c(C)c(O)c(-c3ccnc(N)n3)cc12,GI50,[1],3.03 µM
same,TGI,[1],> 100 µM
same,CC50,[1],> 100 µM
same,growth at 10 µM,[2],66.9%
same,GI50,[3],> 100 µM
same,TGI,[3],> 100 µM
same,CC50,[3],> 100 µM
same,GI50,[4],12.3 µM
same,TGI,[4],> 100 µM
same,CC50,[4],> 100 µM
same,GI50,[5],17.2 µM
same,TGI,[5],> 100 µM
same,CC50,[5],> 100 µM
same,GI50,[6],> 100 µM
same,TGI,[6],> 100 µM
same,CC50,[6],> 100 µM
same,growth at 10 µM,[7],27.2%
same,growth at 10 µM,[8],-0.65%
same,GI50,[9],31.9 µM
same,TGI,[9],> 100 µM
same,CC50,[9],> 100 µM
same,GI50,[10],55.1 µM
same,TGI,[10],> 100 µM
same,CC50,[10],> 100 µM
same,GI50,[11],37.7 µM
same,TGI,[11],> 100 µM
same,CC50,[11],> 100 µM
same,growth at 10 µM,[12],28.7%
same,growth at 10 µM,[13],60.3%
same,growth at 10 µM,[14],62.6%
same,growth at 10 µM,[15],9.17%
same,growth at 10 µM,[16],46.5%
same,GI50,[17],> 100 µM
same,TGI,[17],> 100 µM
same,CC50,[17],> 100 µM
same,GI50,[18],10.9 µM
same,TGI,[18],> 100 µM
same,CC50,[18],> 100 µM
same,growth at 10 µM,[19],47.4%
same,GI50,[20],2.44 µM
same,TGI,[20],> 100 µM
same,CC50,[20],> 100 µM
same,growth at 10 µM,[21],55%
same,GI50,[22],29.8 µM
same,TGI,[22],> 100 µM
same,CC50,[22],> 100 µM
same,GI50,[23],88.1 µM
same,TGI,[23],> 100 µM
same,CC50,[23],> 100 µM
same,GI50,[24],3.6 µM
same,TGI,[24],> 100 µM
same,CC50,[24],> 100 µM
same,growth at 10 µM,[25],38.4%
same,GI50,[26],10.6 µM
same,TGI,[26],> 100 µM
same,CC50,[26],> 100 µM
same,GI50,[27],> 100 µM
same,TGI,[27],> 100 µM
same,CC50,[27],> 100 µM
same,GI50,[28],42.5 µM
same,TGI,[28],> 100 µM
same,CC50,[28],> 100 µM
same,GI50,[29],59 µM
same,TGI,[29],> 100 µM
same,CC50,[29],> 100 µM
same,GI50,[30],24.4 µM
same,TGI,[30],> 100 µM
same,CC50,[30],> 100 µM
same,GI50,[31],4.44 µM
same,TGI,[31],> 100 µM
same,CC50,[31],> 100 µM
same,GI50,[32],4.7 µM
same,TGI,[32],59.9 µM
same,CC50,[32],> 100 µM
same,growth at 10 µM,[33],22.1%
same,growth at 10 µM,[34],40.4%
same,growth at 10 µM,[35],33.8%
Cc1cc(=O)oc2c(C)c(O)c(-c3cc4ccc(F)cc4[nH]3)cc12,GI50,[1],3.82 µM
same,TGI,[1],15 µM
same,CC50,[1],58.4 µM
same,growth at 10 µM,[2],31.9%
same,GI50,[3],3.29 µM
same,TGI,[3],12.7 µM
same,CC50,[3],36.7 µM
same,GI50,[4],3.42 µM
same,TGI,[4],15 µM
same,CC50,[4],83.3 µM
same,GI50,[5],2.19 µM
same,TGI,[5],13.2 µM
same,CC50,[5],39.4 µM
same,GI50,[6],4.58 µM
same,TGI,[6],18.3 µM
same,CC50,[6],64.2 µM
same,growth at 10 µM,[7],36.4%
same,growth at 10 µM,[8],27.9%
same,GI50,[9],3.08 µM
same,TGI,[9],19.8 µM
same,CC50,[9],> 100 µM
same,GI50,[10],1.9 µM
same,TGI,[10],6.19 µM
same,CC50,[10],> 100 µM
same,GI50,[11],2.28 µM
same,TGI,[11],7.02 µM
same,CC50,[11],37.5 µM
same,growth at 10 µM,[12],33%
same,growth at 10 µM,[13],27.5%
same,growth at 10 µM,[14],48.7%
same,growth at 10 µM,[15],28.4%
same,growth at 10 µM,[16],26.7%
same,GI50,[17],2.49 µM
same,TGI,[17],10.2 µM
same,CC50,[17],> 100 µM
same,GI50,[18],2.98 µM
same,TGI,[18],15.9 µM
same,CC50,[18],45.4 µM
same,growth at 10 µM,[19],-9.31%
same,GI50,[20],2.82 µM
same,TGI,[20],10.5 µM
same,CC50,[20],66.6 µM
same,growth at 10 µM,[21],32.4%
same,GI50,[22],4.1 µM
same,TGI,[22],14 µM
same,CC50,[22],42.6 µM
same,GI50,[23],3.12 µM
same,TGI,[23],7.34 µM
same,CC50,[23],41.5 µM
same,GI50,[24],3.54 µM
same,TGI,[24],15.2 µM
same,CC50,[24],52.2 µM
same,growth at 10 µM,[25],58.6%
same,GI50,[26],2.94 µM
same,TGI,[26],10.8 µM
same,CC50,[26],43.1 µM
same,GI50,[27],3.53 µM
same,TGI,[27],18.4 µM
same,CC50,[27],> 100 µM
same,GI50,[28],3.08 µM
same,TGI,[28],17.2 µM
same,CC50,[28],73.6 µM
same,GI50,[29],3.23 µM
same,TGI,[29],13.1 µM
same,CC50,[29],88.3 µM
same,GI50,[30],2.75 µM
same,TGI,[30],12.4 µM
same,CC50,[30],64.1 µM
same,GI50,[31],2.51 µM
same,TGI,[31],10.6 µM
same,CC50,[31],37.3 µM
same,GI50,[32],3.91 µM
same,TGI,[32],14.7 µM
same,CC50,[32],42.3 µM
same,growth at 10 µM,[33],28.3%
same,growth at 10 µM,[34],16.7%
same,growth at 10 µM,[35],68.8%
